#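 Protocol summary: plate cells (96-well), add compound at 5 concentrations, incubate 48 h, interpolate endpoints linearly. At the GI50, growth is halved.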 The source made the active and inactive calls. No stated cut-off is given here; in the data, active = GI50 up to about 1.1 µM and inactive = higher.
# Legend:
# Assay in all cases: growth of human tumour cells (NCI), 48 h
# SNB-78 = system: SNB-78
# SR = system: SR
# A549 = system: A549
# SK-OV-3 = system: SK-OV-3
# RXF 393 = system: RXF 393
# UACC-62 = system: UACC-62
# CCRF-CEM = system: CCRF-CEM
# DMS-273 = system: DMS-273
# NCI-H23 = system: NCI-H23
# UO-31 = system: UO-31
# HOP-62 = system: HOP-62
# SK-MEL-28 = system: SK-MEL-28
# NCI-H522 = system: NCI-H522
# KM12 = system: KM12
# IGROV-1 = system: IGROV-1
# HOP-92 = system: HOP-92
# TK-10 = system: TK-10
# A498 = system: A498
# EKVX = system: EKVX
# SF-268 = system: SF-268
# NCI-H226 = system: NCI-H226
# M14 = system: M14
# U-251 = system: U-251
# HL-60 = system: HL-60
# OVCAR-5 = system: OVCAR-5
# K562 = system: K562
# HT-29 = system: HT-29
# NCI-H460 = system: NCI-H460
# MOLT-4 = system: MOLT-4
# SNB-19 = system: SNB-19
# ACHN = system: ACHN
# Malme-3M = system: Malme-3M
# HOP-18 = system: HOP-18
# SF-539 = system: SF-539
# COLO 205 = system: COLO 205
# SF-295 = system: SF-295
# HCT-116 = system: HCT-116
# LXFL 529 = system: LXFL 529
# 786-0 = system: 786-0
# HCC 2998 = system: HCC 2998
# M19-MEL = system: M19-MEL
# OVCAR-8 = system: OVCAR-8
# DMS-114 = system: DMS-114
# SN12C = system: SN12C
# DLD-1 = system: DLD-1
# SW-620 = system: SW-620
# RPMI-8226 = system: RPMI-8226
# SNB-75 = system: SNB-75
# CAKI-1 = system: CAKI-1
# UACC-257 = system: UACC-257
# OVCAR-3 = system: OVCAR-3
# SK-MEL-2 = system: SK-MEL-2
# SK-MEL-5 = system: SK-MEL-5
smiles,measurement,setting,value
COC(=O)CN1CCS/C1=N/C#N,GI50,SNB-78,> 100 µM (inactive)
same,GI50,SR,> 100 µM (inactive)
same,GI50,A549,> 100 µM (inactive)
same,GI50,SK-OV-3,> 100 µM (inactive)
same,GI50,RXF 393,> 100 µM (inactive)
same,GI50,UACC-62,> 100 µM (inactive)
same,GI50,CCRF-CEM,> 100 µM (inactive)
same,GI50,DMS-273,> 100 µM (inactive)
same,GI50,NCI-H23,> 100 µM (inactive)
same,GI50,UO-31,> 100 µM (inactive)
same,GI50,HOP-62,> 100 µM (inactive)
same,GI50,SK-MEL-28,> 100 µM (inactive)
same,GI50,NCI-H522,> 100 µM (inactive)
same,GI50,KM12,> 100 µM (inactive)
same,GI50,IGROV-1,> 100 µM (inactive)
same,GI50,HOP-92,> 100 µM (inactive)
same,GI50,TK-10,> 100 µM (inactive)
same,GI50,A498,> 100 µM (inactive)
same,GI50,EKVX,> 100 µM (inactive)
same,GI50,SF-268,> 100 µM (inactive)
same,GI50,NCI-H226,> 100 µM (inactive)
same,GI50,M14,> 100 µM (inactive)
same,GI50,U-251,> 100 µM (inactive)
same,GI50,HL-60,> 100 µM (inactive)
same,GI50,OVCAR-5,> 100 µM (inactive)
same,GI50,K562,> 100 µM (inactive)
same,GI50,HT-29,> 100 µM (inactive)
same,GI50,NCI-H460,> 100 µM (inactive)
same,GI50,MOLT-4,> 100 µM (inactive)
same,GI50,SNB-19,> 100 µM (inactive)
COc1cc(C2c3cc4c(cc3[C@@H](NCCCN3CCCC3=O)C3COC(=O)[C@H]23)OCO4)cc(OC)c1O (some centres not stated),GI50,ACHN,2.92 µM (inactive)
same,GI50,NCI-H23,0.515 µM (active)
same,GI50,Malme-3M,0.405 µM (active)
same,GI50,NCI-H522,0.319 µM (active)
same,GI50,HOP-18,> 17.5 µM (inactive)
same,GI50,SF-539,0.393 µM (active)
same,GI50,COLO 205,4.17 µM (inactive)
COc1ccc(C2[C@@H](Cl)C(=O)N2c2ccc(OC)cc2)cc1 (some centres not stated),GI50,SNB-78,> 100 µM (inactive)
same,GI50,SR,40.5 µM (inactive)
same,GI50,A549,> 100 µM (inactive)
same,GI50,SK-OV-3,23.1 µM (inactive)
same,GI50,RXF 393,22.4 µM (inactive)
same,GI50,UACC-62,33.6 µM (inactive)
same,GI50,CCRF-CEM,39.1 µM (inactive)
same,GI50,SF-295,28.7 µM (inactive)
same,GI50,HCT-116,18.6 µM (inactive)
same,GI50,DMS-273,62.7 µM (inactive)
same,GI50,ACHN,41.8 µM (inactive)
same,GI50,LXFL 529,62.8 µM (inactive)
same,GI50,786-0,36.6 µM (inactive)
same,GI50,HCC 2998,> 100 µM (inactive)
same,GI50,NCI-H23,> 100 µM (inactive)
same,GI50,M19-MEL,50.5 µM (inactive)
same,GI50,UO-31,56.8 µM (inactive)
same,GI50,SK-MEL-28,> 100 µM (inactive)
same,GI50,Malme-3M,45.9 µM (inactive)
same,GI50,OVCAR-8,46.2 µM (inactive)
same,GI50,DMS-114,53 µM (inactive)
same,GI50,SN12C,> 100 µM (inactive)
same,GI50,DLD-1,89.5 µM (inactive)
same,GI50,NCI-H522,36 µM (inactive)
same,GI50,KM12,> 100 µM (inactive)
same,GI50,IGROV-1,> 100 µM (inactive)
same,GI50,SW-620,> 100 µM (inactive)
same,GI50,HOP-92,11.6 µM (inactive)
same,GI50,RPMI-8226,98.6 µM (inactive)
same,GI50,SNB-75,15.1 µM (inactive)
same,GI50,TK-10,> 100 µM (inactive)
same,GI50,A498,12.2 µM (inactive)
same,GI50,EKVX,> 100 µM (inactive)
same,GI50,SF-268,> 100 µM (inactive)
same,GI50,NCI-H226,> 100 µM (inactive)
same,GI50,SF-539,19.8 µM (inactive)
same,GI50,U-251,> 100 µM (inactive)
same,GI50,HL-60,20.4 µM (inactive)
same,GI50,CAKI-1,30.4 µM (inactive)
same,GI50,UACC-257,46 µM (inactive)
same,GI50,COLO 205,> 100 µM (inactive)
same,GI50,OVCAR-5,> 100 µM (inactive)
same,GI50,K562,19.5 µM (inactive)
same,GI50,OVCAR-3,93.1 µM (inactive)
same,GI50,HT-29,> 100 µM (inactive)
same,GI50,NCI-H460,51.4 µM (inactive)
same,GI50,SK-MEL-2,62.5 µM (inactive)
same,GI50,SK-MEL-5,> 100 µM (inactive)
same,GI50,MOLT-4,35.9 µM (inactive)
same,GI50,SNB-19,45.5 µM (inactive)

# — ChEMBL document CHEMBL1201862, “PubChem BioAssay data set” (2004)
